Test: in vitro
Conditions: human, hela cells, % viability

SMILES	viability at 28.5 h, 10 µM [%]
Nc1cc(=O)[nH]c(=O)n1Cc1ccc(Cl)cc1 [CBK288002]	112
COc1cccc(CNC(=O)CCc2nc3ccccc3[nH]2)c1 [CBK288003]	115
Cc1ccc(OCC(=O)Nc2ccc3c(c2)nc2n3CCOC2)cc1 [CBK288005]	102
CCCCc1ccc(Nc2ncnc3nc[nH]c23)cc1 [CBK288006]	96.3
O=c1[nH]c2ccccc2n1CCOc1ccccc1 [CBK288008]	98.5
Cc1c(-c2cc(-c3cnn(C)c3C)[nH]n2)cnn1C [CBK288013]	76
CCNc1nnc(-c2c(Cl)c(C)nn2C)s1 [CBK288014]	92.5
Cc1c(C2CC(C(F)(F)F)n3nccc3N2)cnn1C (stereo not drawn) [CBK288015]	93.9
O=C(Nc1ccncc1)c1c(O)c2ccccc2[nH]c1=O [CBK288017]	112
Cc1ccc(C)c(-c2nc(-c3cccnc3)no2)c1 [CBK288018]	102
CCCCNc1nnc(-c2cc(C)nn2C)s1 [CBK288019]	91.5
Cc1cc(F)ccc1NC(=O)c1n[nH]cc1Cl [CBK288020]	92.4
CCCCNc1nnc(-c2nn(C)cc2Cl)s1 [CBK288021]	79.4
O=C(O)c1cc(-c2ccc(OC(F)F)cc2)[nH]n1 [CBK288022]	87.1
O=C(Nc1ccn(C23CC4CC(CC(C4)C2)C3)n1)c1ccco1 [CBK288023]	106
O=c1c2[nH]cc(-c3ccccc3)c2ncn1CCc1ccccc1 [CBK288025]	76.9
O=c1[nH]nc2c3c(nc(-c4ccncc4)n12)CCCC3 [CBK288029]	109
O=C(NCc1ccccn1)c1nn[nH]c1Nc1cccc(Cl)c1 [CBK288030]	79.4
O=C(O)Cc1cnnn1-c1ccc(Cl)cc1Cl [CBK288035]	86
COc1ccc(CNc2nc(C)n[nH]2)cc1Cl [CBK288036]	98.9
Cc1n[nH]c(NCc2cccc(Cl)c2Cl)n1 [CBK288037]	107
O=C(O)c1nnn(-c2ccccc2)c1-c1ccncc1 [CBK288041]	95.1
O=C1CC(c2noc(-c3ccncc3)n2)CN1c1ccccc1 (stereo not drawn) [CBK288043]	85.4
CN(C(=O)CSc1ncccc1C#N)c1ccccc1 [CBK288044]	98.3
COc1ccccc1NC(=O)c1cn(Cc2ccc(N)cc2)cn1 [CBK288045]	99.5

SMILES	viability at 28.5 h, 10 µM [%]
COc1ccc(Cn2cnc3[nH]ncc3c2=O)cc1 [CBK288049]	91.7
O=c1[nH]c2n[nH]c(=O)n2c2c(-c3ccccc3)c[nH]c12 [CBK288054]	84.2
Cc1ccc(Sc2nccn3c(=O)[nH]nc23)c(C)c1 [CBK288055]	101
Cc1noc(C2=CC=CN3C2=NNC32CCNCC2)n1 [CBK288058]	91
COc1cccc(C2C=C(c3cccnc3)Nc3ncnn32)c1OC (stereo not drawn) [CBK288062]	95.1
O=C(NCc1nnc2ccccn12)c1ccccc1 [CBK288064]	110
COc1ccc(C(C)NC(=O)c2cn[nH]c2-c2ccc(Cl)cc2)cc1 (stereo not drawn) [CBK288065]	102
CCOc1ccc(Nc2cc(Cl)nc(N)n2)cc1 [CBK288069]	98.7
O=C(CC1C(=O)Nc2ncnn21)Nc1ccccc1 (stereo not drawn) [CBK288071]	90.7
O=c1c2nnc3ncnn3c2ccn1-c1ccccc1 [CBK288075]	99.5
COc1cc(-c2nc(N)n[nH]2)cc(OC)c1OC [CBK288077]	103
Fc1ccc(C2=Nn3cnnc3SC2)c(F)c1 [CBK288078]	97
COc1ccc(NC2=NN(c3ccccc3)C(=O)C2)cc1 [CBK288085]	104
Cc1nn(-c2ccccc2)c(Cl)c1C1NC(=O)c2c(sc(C)c2C)N1 (stereo not drawn) [CBK288086]	96
CCOc1cc(CNc2nc[nH]n2)cc(Cl)c1OCc1ccccc1F [CBK288088]	103
CCCCn1nnnc1NCc1cccc(OC)c1OC [CBK288091]	104
Cc1nc2c3c(sc2c(=O)[nH]1)NC(=O)CC3c1ccccc1 (stereo not drawn) [CBK288094]	93.1
CCCNc1cc(C)c(C#N)c2nc3ccccc3n12 [CBK288097]	94
COc1ccccc1CNc1ncnc2[nH]ncc12 [CBK288100]	99.5
CCN1CCN(c2ncnc3sc(C)c(C)c23)CC1 [CBK288101]	98.6
Cc1ccc(-c2cc(C(=O)NCc3ccc(F)cc3Cl)n[nH]2)cc1 [CBK288102]	85.6
COCCNc1nc2c([nH]1)c(=O)n(C)c(=O)n2C [CBK288104]	90.3
O=C(c1cc(-c2cccs2)[nH]n1)N1CCCCCC1 [CBK288108]	92.1
O=C(c1n[nH]c2c1CCCC2)N1CC(=O)N(CCc2ccccc2)C(=O)C1 [CBK288110]	98.3
O=C(NCCc1ccccc1)c1cc(-c2ccccc2Cl)[nH]n1 [CBK288113]	105

SMILES	viability at 28.5 h, 10 µM [%]
CN(C(=O)c1cc(-c2cccs2)[nH]n1)c1ccccc1 [CBK288115]	86.1
CCOc1ccc(-c2cc(C(=O)NCc3cc(OC)ccc3OC)n[nH]2)cc1 [CBK288116]	85.7
COc1ccc(Nc2n[nH]c3nc(C)cc(=O)n23)cc1 [CBK288117]	91.1
Cn1c(=O)n(C)c2cc(CNCc3ccccn3)ccc21 [CBK288118]	95.4
N#Cc1cc2c(=O)n(-c3ccccn3)ccc2[nH]c1=O [CBK288119]	94.5
CC1CCCN(c2nc3nc[nH]c(=O)c3s2)C1 (stereo not drawn) [CBK288120]	83.4
Cc1ccc(C(=O)Nc2noc3ccccc23)cc1 [CBK288124]	88.9
CCOc1ccc(Cl)cc1CNc1nnnn1CC [CBK288128]	92.9
COc1ccc(CNc2nc[nH]n2)c(OC)c1OC [CBK288129]	103
CC(=O)Nc1ccc(-c2nc3ncccc3o2)cc1C [CBK288132]	91.1
Cc1ccc(NC(=O)C2CC(=O)Nc3nc4ccccc4n32)cc1 (stereo not drawn) [CBK288134]	113
Cc1ccccc1-c1cc(=O)[nH]c(Nc2ccccc2)n1 [CBK288142]	97
Cc1ccc(Nc2ncc3c(n2)CCCC3=O)cc1 [CBK288143]	87.6
COc1cc(C2C3=C(COC3=O)Nc3[nH]nc(C)c32)ccc1O (stereo not drawn) [CBK288146]	98.5
O=C1CCCC2=C1C(c1ccc(OCc3ccccc3)cc1)c1c([nH][nH]c1=O)N2 (stereo not drawn) [CBK288149]	92.1
O=C1CCCC2=C1C(c1ccccc1Cl)n1nnnc1N2 (stereo not drawn) [CBK288151]	93
Cc1ccc(-c2nc3ncc(C#N)c(N)n3n2)cc1 [CBK288153]	106
O=C1NNC=Cc2c1cnc1nc(C(F)(F)F)nn21 [CBK288156]	93.3
Cc1cc(C)nc(NC(=N)NCc2ccccc2)n1 [CBK288157]	94.2
CCN1C(=O)c2[nH]nc(-c3ccccc3O)c2C1c1cccc(O)c1 (stereo not drawn) [CBK288159]	95.9
Cc1ccc(-n2c(C)c(C)c3c(NCCO)cnnc32)cc1 [CBK288162]	101
Cn1c(=O)c2c(nc(NCCOCCO)n2C)n(C)c1=O [CBK288164]	98.2
COCc1cc(=O)n2ncc(-c3ccccc3)c2[nH]1 [CBK288168]	84.6
CSc1nc2n(n1)C(C)C1=C(CCCC1=O)N2 (stereo not drawn) [CBK288169]	108
COc1cc(NC(=O)c2nc[nH]n2)c(OC)cc1Cl [CBK288170]	93

SMILES	viability at 28.5 h, 10 µM [%]
c1ccc2c(c1)NC(c1ccncc1)n1nnnc1-2 (stereo not drawn) [CBK288171]	82.5
Cc1ccc(C(=O)n2nc(-c3cccnc3)nc2N)cc1 [CBK288172]	97.4
Oc1cc(Cc2ccccc2)cnc1CN1CCOCC1 [CBK288173]	94
CCOc1cc(O)c(-c2nc(N)ncc2-c2ccc3c(c2)OCCO3)cc1CC [CBK288174]	94.7
NC(=O)Nc1ccc2c(c1)ncn2C1CCCCC1 [CBK288176]	95.6
CCOc1ccc(-c2c(C3CC3)n[nH]c2N)cc1OCC [CBK288177]	107
CC(C)(C)NC(=O)COc1ccc(CNc2nc[nH]n2)cc1 [CBK288179]	89.3
N#Cc1ccc(C2NC(=O)c3ccccc3O2)cc1 (stereo not drawn) [CBK288180]	89.3
Nc1ncnc2c1nc(SCc1ccccc1)n2Cc1ccccc1 [CBK288181]	90.9
O=C(O)CC1Cn2ncc(-c3ccccc3)c2NC1=O (stereo not drawn) [CBK288187]	89.5
O=c1c2c([nH]c3nc(COc4ccccc4)nn13)CCC2 [CBK288188]	98
Nc1cc(=O)[nH]c(=O)n1CCc1c[nH]c2ccccc12 [CBK288190]	98.1
Cc1ccc(-c2c(N3CCCC3)n[nH]c2C2CC2)cc1 [CBK288192]	97.8
Cc1nc(=O)c(-c2ccccc2)c(C)n1-c1ccc2cn[nH]c2c1 [CBK288193]	100
Nc1nc2n(c1C(=O)c1ccc(Cl)cc1)CCC2 [CBK288194]	92.5
COc1ccc(Cl)cc1Nc1ncnc(N)n1 [CBK288195]	100
N#Cc1c2c(c3nncn3c1Nc1ccccc1)CCCC2 [CBK288197]	97.7
CC1(C)Cc2c(cnn2-c2ccc(F)cc2)C(N)C1 (stereo not drawn) [CBK288200]	91.9
COc1ccccc1OCC(=O)N1CCNC1=O [CBK288201]	93.8
O=C(Cc1ccccc1)Nc1ccc2[nH]ncc2c1 [CBK288211]	104
CCCc1cc(C(=O)Nc2nccs2)cs1 [CBK288212]	83.9
O=C(Nc1ncccc1Cl)c1ccc(F)cc1 [CBK288215]	93.1
Nc1nc2n(n1)C1(CCCCC1)C1=C(CCCC1)N2 [CBK288219]	86.7
CC(C)(Oc1ccc(Cl)cc1)C(=O)Nc1nnc[nH]1 [CBK288220]	102
